Measurements taken from patent publication EP4759807A1, “PROTEOLYSIS TARGETING CHIMERA COMPOUND FOR DEGRADING IRAK4 AND USE THEREOF” (Shenzhen Zhongge Biological Technology Co., Ltd., priority 2023, dated 2025).
pIC50: −log10 of the molar value.

Assays:
hERG ion channel = biological target: T1, hERG ion channel (Homo sapiens, UniProt Q12809); assay: Inhibitory effect on hERG ion channels (manual patch clamp); type: cell-based; conditions: HEK293 cells stably expressing hERG channels, read-out: hERG (IC50, manupatch)
T1 construct: host or cells: HEK293
Protocol: In this experiment, the inhibitory effect of the compound on the hERG ion channel was detected by a manual patch clamp electrophysiological method, and the cardiac safety was evaluated based on the single concentration inhibition rate or IC50 of the compound.
The cells used in this experiment were HEK293 cell lines transfected with hERG cDNA and stably expressing hERG channels (#60187, provided by BPS, P3-P23 generations were used for experimental research). The cells was cultured in a medium containing the following components: MEM medium, 10% (v/v) inactivated fetal bovine serum, 1 mM sodium pyruvate, 500 µg geneticin, 0.1 mM non-essential amino acids, 100 U penicillin-streptomycin. HEK293 hERG cells were grown in a culture flask containing the above culture solution and cultured in an incubator at 37°C and 5% CO2. […]
A manual patch clamp system (HEKA EPC-10 signal amplifier and digital conversion system, purchased from HEKA Electronics, Germany) was used to record whole-cell currents in electrophysiological experiments. […] After the hERG current recorded in the above steps reached stabilization under the continuous perfusion of extracellular solution in the recording chamber, different concentrations of the compound to be tested could be perfused until the inhibitory effect of the drug on the hERG current reached a stable state. […]

[1] = tested on: IFN-γ, IL-1β, IL-6, IL-10, IL-12p70, TNF-α and IL-23 secretion by hPBMC; assay: Inhibition of LPS-induced secretion of multiple cytokines by human-derived PBMC (MSD detection); type: cell-based; conditions: 8 h compound, then LPS 2 ng/mL 16 h; compared with KT474
Protocol: Experiment materials: Human-derived peripheral blood mononuclear cells (hPBMC) were provided by Hemacare Donor Center.
Thawing and plating PBMCs: The frozen PBMC was removed from liquid nitrogen, thawed in a 37°C water bath kettle, then resuspended with 10 mL of complete medium, and centrifuged at 350 g at room temperature for 5 min, and the supernatant was discarded. The cells were resuspended with 5 mL of complete medium, and the cells were counted. The cells were diluted to 2 × 10^6/mL based on the counting results, and 0.1 mL (2 × 10^5 cells) was added to each well of the 96-well plate.
After uniform mixing, incubation was performed in an incubator at 37°C and 5% CO2 for 8 h.
LPS induction: After 8 h, 50 µL of LPS was added to all wells to a final concentration of 2 ng/mL. After uniform mixing, incubation was further performed in an incubator at 37°C and 5% CO2 for 16 h. […]
MSD detection: The buffer was added to the freeze-dried human inflammatory factor standard mixture to prepare a highest concentration standard (standard 1), and then serial 4-fold dilutions were performed and a standard with a concentration of 0 was prepared (a total of 10 concentrations). […] The plate was washed 3 times, and then 150 µL of 2× reading buffer was added and the plate was read using an MSD instrument.

IRAK4 = biological target: T2, IRAK4 (Mus musculus, UniProt Q8R4K2); conditions: Balb/c mice, 24 h
T2 sequence (Q8R4K2 1-459): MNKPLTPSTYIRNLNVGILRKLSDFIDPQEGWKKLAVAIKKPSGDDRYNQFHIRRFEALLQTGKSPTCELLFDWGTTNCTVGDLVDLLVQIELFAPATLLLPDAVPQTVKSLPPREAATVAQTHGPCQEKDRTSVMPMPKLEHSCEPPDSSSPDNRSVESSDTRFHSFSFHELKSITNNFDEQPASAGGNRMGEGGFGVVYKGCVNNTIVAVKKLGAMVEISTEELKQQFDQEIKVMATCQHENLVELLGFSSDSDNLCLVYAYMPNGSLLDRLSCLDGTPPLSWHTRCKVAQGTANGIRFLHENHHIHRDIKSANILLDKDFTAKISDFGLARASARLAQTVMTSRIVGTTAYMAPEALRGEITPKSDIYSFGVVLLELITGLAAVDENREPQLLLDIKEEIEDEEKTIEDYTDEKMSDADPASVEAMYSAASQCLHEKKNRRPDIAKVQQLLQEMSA
Protocol: Experiment materials: Female Balb/c mice, 6-8 weeks old, 18-20 grams were used in the experiment and were provided by Vital River Laboratory Animal Technology Co., Ltd.
Experimental method: The experiment started after the experimental animals were acclimated to the animal facility environment for 3 days. […] After 24 h, the animals were euthanized, and whole blood and spleen tissue were collected. The whole blood was temporarily placed on wet ice for subsequent PBMC extraction, and the spleen tissue was quickly placed in dry ice. PBMC extraction: 1.5 ml of red blood cell lysis buffer was added to the whole blood, and the obtained mixture was tapped with fingers for mixing, placed at room temperature in the dark for 5 min, and centrifuged at 400 g for 5 min, and the supernatant was discarded. The above steps were repeated twice. Then, 1.5 ml of DPBS was added and mixed uniformly. The mixture was centrifuged at 400 g for 5 min, and the obtained precipitate was PBMC. The PBMC was stored in a -80°C refrigerator for subsequent Western blot analysis. PBMC sample processing: The PBMC samples were placed on wet ice. 50 µL of lysis buffer was separately added to lyse the samples for 30 min, and the mixture was centrifuged at 12500 rpm for 15 min. The protein was quantified by the BCA method. […] The protein was quantified by BCA method. […]

T1 sequence (Q12809 whole entry): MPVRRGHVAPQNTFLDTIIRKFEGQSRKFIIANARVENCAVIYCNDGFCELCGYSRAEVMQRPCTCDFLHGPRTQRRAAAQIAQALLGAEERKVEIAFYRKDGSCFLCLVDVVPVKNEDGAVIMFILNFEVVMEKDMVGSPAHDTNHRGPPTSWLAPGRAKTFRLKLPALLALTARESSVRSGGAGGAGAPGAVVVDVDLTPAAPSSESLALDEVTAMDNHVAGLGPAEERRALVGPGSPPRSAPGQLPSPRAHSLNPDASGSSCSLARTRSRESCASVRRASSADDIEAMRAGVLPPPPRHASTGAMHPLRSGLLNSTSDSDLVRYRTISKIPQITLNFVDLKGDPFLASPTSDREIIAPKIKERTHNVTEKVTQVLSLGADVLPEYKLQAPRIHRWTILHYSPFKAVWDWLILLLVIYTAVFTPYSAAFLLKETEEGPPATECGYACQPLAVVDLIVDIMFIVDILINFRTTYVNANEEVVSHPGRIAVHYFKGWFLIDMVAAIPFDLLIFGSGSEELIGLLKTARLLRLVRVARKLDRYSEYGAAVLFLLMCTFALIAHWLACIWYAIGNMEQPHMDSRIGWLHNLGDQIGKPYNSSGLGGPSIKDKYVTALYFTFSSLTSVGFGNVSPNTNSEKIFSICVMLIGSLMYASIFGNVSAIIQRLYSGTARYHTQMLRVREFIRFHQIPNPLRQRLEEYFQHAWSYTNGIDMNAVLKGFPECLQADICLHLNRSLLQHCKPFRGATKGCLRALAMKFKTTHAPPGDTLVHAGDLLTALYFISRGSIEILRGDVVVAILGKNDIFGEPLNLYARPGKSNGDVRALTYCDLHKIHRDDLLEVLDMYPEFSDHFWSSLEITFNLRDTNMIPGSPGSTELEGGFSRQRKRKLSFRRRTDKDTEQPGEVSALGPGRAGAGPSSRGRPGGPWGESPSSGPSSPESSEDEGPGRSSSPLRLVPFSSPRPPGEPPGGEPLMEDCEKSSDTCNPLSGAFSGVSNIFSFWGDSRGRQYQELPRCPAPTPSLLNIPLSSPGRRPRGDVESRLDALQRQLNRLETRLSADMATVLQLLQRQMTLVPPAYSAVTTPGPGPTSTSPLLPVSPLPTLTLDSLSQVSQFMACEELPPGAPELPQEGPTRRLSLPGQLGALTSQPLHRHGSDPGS

With `Cn1c(=O)n(C2CCC(=O)NC2=O)c2cccc(N3CCC(N4CCN(C[C@H]5CC[C@H](n6cc(-n7cc(-c8cnn9ccc(N%10CCC[C@H](O)C%10)nc89)nn7)c(C(F)F)n6)CC5)CC4)CC3)c21` (stereo partly shown) [Example 146] as the compound, how does the pIC50 (hERG ion channel) read?
Its pIC50 is 5.15.

What about the “ability to inhibit the secretion of multiple cytokines by human-derived PBMC” value [1] of the same compound?
Its value is “significantly better than that of positive reference KT474”.

And the “expression level of IRAK4 protein in the spleen and PBMC” value (IRAK4; single oral dose 10, 30, 100 mg/kg, compared with the blank control group)?
Its value is “significantly inhibit”.

What about the “proteolysis ability for spleen IRAK4” value (IRAK4; single oral dose, three doses of 10, 30, and 100 mpk, compared with KT474) of the same compound?
Its value is “significantly superior to KT474”.
